According to US8846711B2, “Heterocyclic acrylamides and their use as pharmaceuticals” (Fab Pharma S.A.S., priority 2009, dated 2014):
Values after ≈ are worked out from the molar mass of the structure shown. Read-outs that look alike come from different tables or passages of the source.

Legend:
[1] = target: human albumin (HSA) (Homo sapiens (Human), UniProt P02768); experiment: HSA binding analysis using a chiral HSA column; format: in vitro ADME; details: for HSA Binding (%): AB%=[k′/(k′+1)]*100, pH 7.0; for HSA Binding (%) / Conclusion (HSA binding class): chiral HSA column; for k′: capacity factor, k′=(Tr−T0)/T0; for Tr: retention time on chiral HSA column, pH 7.0, 37° C.; for affinity in vitro to human albumin: text summary of Table 7
human albumin (HSA), sequence (P02768 25-609): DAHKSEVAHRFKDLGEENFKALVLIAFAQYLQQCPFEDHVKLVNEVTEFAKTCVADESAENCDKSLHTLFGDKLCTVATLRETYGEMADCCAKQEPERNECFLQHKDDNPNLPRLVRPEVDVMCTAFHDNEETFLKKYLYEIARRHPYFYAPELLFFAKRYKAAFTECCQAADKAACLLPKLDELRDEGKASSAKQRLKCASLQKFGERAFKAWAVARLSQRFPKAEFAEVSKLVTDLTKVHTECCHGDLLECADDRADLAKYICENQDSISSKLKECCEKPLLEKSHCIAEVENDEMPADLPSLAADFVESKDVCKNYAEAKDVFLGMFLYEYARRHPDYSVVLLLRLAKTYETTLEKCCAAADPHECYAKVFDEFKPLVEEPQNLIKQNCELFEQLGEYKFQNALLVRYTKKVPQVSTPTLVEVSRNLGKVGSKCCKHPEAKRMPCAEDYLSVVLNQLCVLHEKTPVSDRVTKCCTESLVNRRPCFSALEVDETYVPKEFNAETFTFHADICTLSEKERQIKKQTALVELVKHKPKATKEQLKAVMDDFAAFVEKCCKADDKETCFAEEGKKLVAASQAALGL
Text: The test system used in this analysis was an HSA chiral column.
The relationship between the retention time (Tr) and percentage of albumin binding (AB %) depended on the dead time (TO) and the capacity factor (k′): AB%=[k′/(k′+1)]*100
HSA binding was classified as follows:
75%≦AB<90%: Moderate binding

[2] = system: E. coli (ATCC 25922); experiment: MIC determination using susceptibility method (broth microdilution); format: cell-based; details: Escherichia coli
Procedure: (§1) Minimum inhibitory concentrations (MICs) were determined by broth microdilution according to CLSI guidelines (CLSI, M100-20^1, M7-A8^2, M27-A3^3). The compounds were tested in the range from […]. Colonies were taken directly from a second-pass culture plate and prepared to a suspension equivalent to the 0.5 McFarland standard using normal saline. […] The panels were incubated at 35° C. for 16 to 20 hours before reading the MIC endpoints. The compounds of Examples 12, 29, 59, 63 and 66-71 were dissolved in DMSO to make the initial solutions of 5120 μg/ml. These solutions were diluted 1:10 in sterile water to a stock solution of 512 μg/ml. The stock solutions were further diluted into the appropriate broth medium for the sequential dilutions used in the broth microdilution panels. S. pneumoniae was tested in Mueller Hinton (MH) broth with 3% lysed horse blood and C. albicans was tested in RPMI-1640 medium. All other organisms were tested in MH broth.

[3] = system: MRSA (IHMA #510059); experiment: as above; format: cell-based; details: Staphylococcus aureus, read-out: MIC (μg/ml) MRSA (IHMA #510059)
Procedure: as §1

[4] = system: E. faecalis (ATCC 29212); experiment: as above; format: cell-based; details: Enterococcus faecalis
Procedure: as §1

[5] = system: C. albicans (ATCC 90028); experiment: as above; format: cell-based; details: Candida albicans
Procedure: as §1

[6] = system: S. pneumoniae (ATCC 49619); experiment: as above; format: cell-based; details: Streptococcus pneumoniae
Procedure: as §1

[7] = system: S. aureus ATCC 29213; experiment: as above; format: cell-based; details: Staphylococcus aureus
Procedure: as §1

[8] = system: MSSA (IHMA #555189); experiment: as above; format: cell-based; details: Staphylococcus aureus, read-out: MIC (μg/ml) MSSA (IHMA #555189)
Procedure: as §1

[9] = ATCC25922, read-out: MIC (μg/ml) E. coli (ATCC 25922)
[10] = ATCC29212, read-out: MIC (μg/ml) E. faecalis (ATCC 29212)
[11] = ATCC90028, read-out: MIC (μg/ml) C. albicans (ATCC 90028)
[12] = ATCC49619, read-out: MIC (μg/ml) S. pneumoniae (ATCC 49619)
[13] = ATCC29213, read-out: MIC (μg/ml) S. aureus ATCC 29213
[14] = ATCC25922, Broth microdilution, MH broth, read-out: MIC (μg/ml) E. coli (ATCC 25922)
[15] = ATCC29212, Broth microdilution, MH broth, read-out: MIC (μg/ml) E. faecalis (ATCC 29212)
[16] = ATCC90028, Broth microdilution, RPMI-1640 medium, read-out: MIC (μg/ml) C. albicans (ATCC 90028)
[17] = ATCC49619, Broth microdilution, MH broth with 3% lysed horse blood, read-out: MIC (μg/ml) S. pneumoniae (ATCC 49619)
[18] = ATCC29213, Broth microdilution, MH broth, read-out: MIC (μg/ml) S. aureus ATCC 29213

| MIC [2, 14] [µg/mL] | MIC ([3]; Broth microdilution, MH broth) [µg/mL] | MIC [4, 15] [µg/mL] | MIC [5, 16] [µg/mL] | MIC [6, 17] [µg/mL] | MIC [7, 18] [µg/mL] | MIC ([8]; Broth microdilution, MH broth) [µg/mL] | Compound | HSA Binding (%) [1] [%] | k′ [1] | Conclusion (HSA binding class) [1] | Tr [1] [min] | affinity in vitro to human albumin [1] | MIC [2, 9] [µg/mL] | MIC [3] [µg/mL] | MIC [4, 10] [µg/mL] | MIC [5, 11] [µg/mL] | MIC [6, 12] [µg/mL] | MIC [7, 13] [µg/mL] | MIC [8] [µg/mL] |
| --- | --- | --- | --- | --- | --- | --- | --- | --- | --- | --- | --- | --- | --- | --- | --- | --- | --- | --- | --- |
| – | – | – | – | – | – | – | O=C1CCc2cc(/C=C/C(=O)N3CC(OCCc4cccs4)C3)cnc2N1 [Example 29, (E)-6-(3-Oxo-3-(3-(2-(thiophen-2-yl)ethoxy)azetidin-1-yl)prop-1-enyl)-3,4-dihydro-1,8-naphthyridin-2(1H)-one] | 55.7 | 1.259 | Low binding (AB<75%: Low binding) | 1.743 | low affinity | > 128 | 0.5 (≈ 1.3 µM) | > 128 | > 128 | > 128 | 0.5 (≈ 1.3 µM) | 0.5 (≈ 1.3 µM) |
| – | – | – | – | – | – | – | O=C1CCc2cc(/C=C/C(=O)N3CC(c4cc5ccccc5o4)C3)cnc2N1 [Example 59, (E)-6-(3-(3-(Benzofuran-2-yl)azetidin-1-yl)-3-oxoprop-1-enyl)-3,4-dihydro-1,8-naphthyridin-2(1H)-one] | 82.4 | 4.678 | Moderate | 4.378 | moderate affinity | 64 (≈ 171 µM) | 0.06 (≈ 0.161 µM) | 64 (≈ 171 µM) | 128 (≈ 343 µM) | 32 (≈ 85.7 µM) | 0.06 (≈ 0.161 µM) | 0.06 (≈ 0.161 µM) |
| – | – | – | – | – | – | – | CCCCOC1CN(C(=O)/C=C/c2cnc3c(c2)CC2(CCN(C)CC2)C(=O)N3)C1 [Example 63, (E)-6-(3-(3-Butoxyazetidin-1-yl)-3-oxoprop-1-enyl)-1′-methyl-1H-spiro[[1,8]naphthyridine-3,4′-piperidin]-2(4H)-one] | 56.3 | 1.288 | Low binding (AB<75%: Low binding) | 1.760 | low affinity | 64 (≈ 155 µM) | 1 (≈ 2.42 µM) | 64 (≈ 155 µM) | 128 (≈ 310 µM) | 64 (≈ 155 µM) | 1 (≈ 2.42 µM) | 1 (≈ 2.42 µM) |
| – | – | – | – | – | – | – | Cc1c(C2CN(C(=O)/C=C/c3cnc4c(c3)CCC(=O)N4)C2)oc2ccccc12 [Example 67, (E)-6-(3-(3-(3-Methylbenzofuran-2-yl)azetidin-1-yl)-3-oxoprop-1-enyl)-3,4-dihydro-1,8-naphthyridin-2(1H)-one] | 89.3 | 8.360 | Moderate | 7.229 | moderate affinity | > 128 | 0.06 (≈ 0.155 µM) | > 128 | > 128 | 128 (≈ 330 µM) | 0.06 (≈ 0.155 µM) | 0.06 (≈ 0.155 µM) |
| – | – | – | – | – | – | – | Cc1c(C2CN(C(=O)/C=C/c3cnc4c(c3)CC3(CCN(C)CC3)C(=O)N4)C2)oc2ccccc12 [Example 68, (E)-1′-Methyl-6-(3-(3-(3-methylbenzofuran-2-yl)azetidin-1-yl)-3-oxoprop-1-enyl)-1H-spiro[[1,8]naphthyridine-3,4′-piperidin]-2(4H)-one] | 91.8 | 11.216 | High binding (AB≧90%: High binding) | 9.414 | high affinity | > 128 | 0.5 (≈ 1.06 µM) | > 128 | > 128 | 128 (≈ 272 µM) | 0.5 (≈ 1.06 µM) | 0.5 (≈ 1.06 µM) |
| – | – | – | – | – | – | – | CN1CCC2(CC1)Cc1cc(/C=C/C(=O)N3CC(c4cc5ccccc5o4)C3)cnc1NC2=O [Example 69, (E)-6-(3-(3-(Benzofuran-2-yl)azetidin-1-yl)-3-oxoprop-1-en-1-yl)-1′-methyl-1H-spiro[[1,8]naphthyridine-3,4′-piperidin]-2(4H)-one] | 88.5 | 7.730 | Moderate | 6.734 | moderate affinity | > 128 | 1 (≈ 2.19 µM) | > 128 | > 128 | 128 (≈ 280 µM) | 1 (≈ 2.19 µM) | 1 (≈ 2.19 µM) |
| > 128 | 0.5 (≈ 1.4 µM) | > 128 | > 128 | > 128 | 0.5 (≈ 1.4 µM) | 0.5 (≈ 1.4 µM) | CCCO/N=C(\C)C1CN(C(=O)/C=C/c2cnc3c(c2)CCC(=O)N3)C1 [Example 70, 6-((E)-3-Oxo-3-(3-((E)-1-(propoxyimino)ethyl)azetidin-1-yl)prop-1-enyl)-3,4-dihydro-1,8-naphthyridin-2(1H)-one] | 36.7 | 0.580 | Low binding (AB<75%: Low binding) | 1.219 | low affinity | – | – | – | – | – | – | – |
| > 128 | 4 (≈ 11.2 µM) | > 128 | > 128 | 128 (≈ 359 µM) | 4 (≈ 11.2 µM) | 8 (≈ 22.4 µM) | CCCO/N=C(/C)C1CN(C(=O)/C=C/c2cnc3c(c2)CCC(=O)N3)C1 [Example 71, 6-((E)-3-Oxo-3-(3-((Z)-1-(propoxyimino)ethyl)azetidin-1-yl)prop-1-enyl)-3,4-dihydro-1,8-naphthyridin-2(1H)-one] | 28.8 | 0.404 | Low binding (AB<75%: Low binding) | 1.084 | low affinity | – | – | – | – | – | – | – |
